How the values were obtained:
[1] = test system: AMP-dependent protein kinase (AMPK); conditions: U.S. Pat. No. 9,707,222; cited from earlier work
[2] = test system: blood glucose; conditions: U.S. Pat. No. 9,707,222; cited from earlier work
[3] = test system: excisional full-thickness square-shaped skin wound; test: Effect of salsolinol ointment on excisional full-thickness skin wound healing in guinea pigs; type: in vivo; conditions: for recover rate of wound vs vehicle control: another experiment; for wound recovery (wound images) vs vehicle controls: FIG. 3
Method: Salsolinol ointments at 0.01 mg/g, 0.03 mg/g and 0.1 mg/g were prepared respectively by dissolving 0.5 mg, 1.5 mg, and 5 mg of salsoinol in 2.5 mL of glycerol (Sigma Inc., MO, USA) plus 1.0 mL of Creagel emulsifier (First Chemical, TPE, Taiwan) and 45.5 mL of distilled water. Vehicle was composed of glycerol (2.5 mL), Creagel emulsifier (1.0 mL), and distilled water (45.5 mL).
Guinea pigs were purchased and were acclimatized at a room temperature, and had free access to water. All experimental procedures were approved by and performed in compliance with the guidelines of the Institutional Animal Care and Use Committee (IACUC). All surgeries were conducted while animals were under continuous anesthesia with 4% isoflurane.
The dorsal skin was shaved and then disinfected with 10% povidone-iodine before an excisional full-thickness square-shaped skin wound (1.0×1.0 cm) was induced using a sterile wound maker. Animals were then housed alone in its cage to avoid any further wound damage.
Animals were randomly divided into six groups (n=5 or 6, each group) as follows: • (1) animals treated with salsolinol at a concentration of 0.01 mg/g (C0.01, n=6); • (2) animal treated with the vehicle (V0.01) as compared with the group C0.01; • (3) animal treated with salsolinol at a concentration of 0.03 mg/g (C0.03, n=5); • (4) animal treated with the vehicle (V0.03) as compared with the group C0.03.
The groups were administered at the same amount of the salsolinol at 0.01 mg/g, and 0.03 mg/g or the vechile at the same amount once daily and the wounds were photopictured on Day 1, Day 3, Day 5, Day 7, Day 10, and Day 14. The sizes of the wounds were analyzed using Visual Basic 6.0. The rate of wound recovery at each experimental time point is calculated by the size of the wound as compared with that of the wound at D1, wherein the rate of wound recovery at Day 1 is 1.0.
In another experiment, the wounds of the guinea pigs were treated with salsolinol at a concentration of 0.001 mg/g, 0.01 mg/g or the vehicle at the same amount once daily and the wounds were photopictured on Day 1, Day 3, Day 5, Day 7, Day 10, and Day 14. The sizes of the wounds were analyzed using Visual Basic 6.0. The recovery rate of the wound at each experimental time point was calculated by the size of the wound as compared with that of the wound at D1, wherein the recover rate of wound at Day 1 is 0.0%.

SMILES	activation of AMPK [1]	efficacy in reducing blood glucose [2]	recover rate of wound vs vehicle control ([3]; salsolinol 0.001 mg/g (C0.001) once daily, FIG. 4)	recover rate of wound vs vehicle control ([3]; salsolinol 0.01 mg/g (C0.01) once daily, after Day 3, p<0.05, FIG. 5)	wound healing (rate of wound recovery) vs vehicle control ([3]; salsolinol 0.01 mg/g (C0.01) once daily vs V0.01, Day 3, Day 5 and Day 7, p<0.01, FIG. 1)	wound recovery (wound images) vs vehicle controls ([3]; salsolinol 0.01 mg/g)	wound healing (rate of wound recovery) vs vehicle control ([3]; salsolinol 0.03 mg/g (C0.03) once daily vs V0.03, Day 3, p<0.05, FIG. 2)	wound recovery (wound images) vs vehicle controls ([3]; salsolinol 0.03 mg/g)	wound recovery (wound images) vs vehicle controls ([3]; salsolinol 0.1 mg/g)	wound recovery vs control groups (summary) ([3]; salsolinol at 0.001 mg/g to 0.03 mg/g, preferably 0.01 mg/g)
COc1ccc(C[C@H]2c3cc(O)c(OC)cc3CCN2C)cc1O [reticuline, reference compound]	can activate	has an efficacy in reducing blood glucose								
CC1NCCc2cc(O)c(O)cc21 (stereo not drawn) [salsolinol]	can activate	has an efficacy in reducing blood glucose	better than that of the control group	significantly better	significantly better	better than the controls	significantly better	better than the controls	better than the controls	enhanced the wound recovery
